pIC50: −log10 of the molar value.
Biological target: T1, Human ATX protein (Homo sapiens, UniProt Q13822)
T1 construct: made in house
Test: ATX biochemical FRET assay with FS-3 substrate
Conditions: FS-3 substrate 2 μM, ATX 1.0 μg/mL, 30 min preincubation, 2 hours at room temperature
Method in brief: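 In-house purified human ATX (1.0 μg/mL final) pre-incubated 30 min at room temperature with compound in Tris buffer pH 7.4 with salts and 1 mg/mL fatty acid-free BSA. FS-3 substrate (2 μM final) then hydrolysed 2 h at room temperature, protected from light; fluorescence read at 485/538 nm.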

`O=C(O)C1CCN(Cc2ccc3c(C(F)(F)F)c(O[C@H]4CC[C@@H](C(F)(F)F)CC4)ccc3c2)CC1` [Example 2, 1-((5-(trifluoromethyl)-6-((cis-4-(trifluoromethyl)cyclohexyl)oxy)-naphthalen-2-yl)methyl)piperidine-4-carboxylic acid] and `O=C(O)C1CCN(Cc2ccc3c(C(F)(F)F)c(N[C@H]4CC[C@@H](C(F)(F)F)CC4)ccc3c2)CC1` [Example 22, 1-((5-(trifluoromethyl)-6-((cis-4-(trifluoromethyl)cyclohexyl)amino)naphthalen-2-yl)methyl)piperidine-4-carboxylic acid] cannot be ordered by pIC50: at least 6.30 for the first, at least 6.60 for the second.

`C[C@H]1CC[C@@H](Oc2ccc3cc(C(N4CCC(C(=O)O)CC4)C(F)(F)F)ccc3c2C(F)(F)F)CC1` (stereo partly drawn) [Example 12, 1-(2,2,2-Trifluoro-1-(6-((cis-4-methylcyclohexyl)oxy)-5-(trifluoromethyl)naphthalen-2-yl)ethyl)piperidine-4-carboxylic acid] and `CC(c1ccc2c(C(F)(F)F)c(O[C@H]3CC[C@@H](C)CC3)ccc2c1)N1CCC(C(=O)O)CC1` (relative stereo) [Example 45, 1-(1-(5-trifluoromethyl-6-(cis-4-methylcyclohexyloxy)naphthalene-2-yl)ethyl)-piperidine-4-carboxylic acid] cannot be ordered by pIC50: at least 6.30 for the first, at least 6.30 for the second.

`CC(c1ccc2c(C(F)F)c(O[C@H]3CC[C@@H](C)CC3)ccc2c1)N1CCC(C(=O)O)CC1` (relative stereo) [Example 55, 1-(1-(6-((cis-4-Methylcyclohexyl)oxy)-5-(difluoromethyl)naphthalen-2-yl)ethyl)piperidine-4-carboxylic acid] and `C[C@H]1CC[C@@H](Oc2ccc3cc(CN4CCC(C(=O)O)CC4)ccc3c2C(F)F)CC1` [Example 13, 1-((5-(Difluoromethyl)-6-((cis-4-methylcyclohexyl)oxy)naphthalen-2-yl)methyl)piperidine-4-carboxylic acid] cannot be ordered by pIC50: at least 7.00 for the first, at least 7.00 for the second.

`CC1(C(=O)O)CCN(Cc2ccc3c(C(F)(F)F)c(O[C@H]4CC[C@@H](C(F)(F)F)CC4)ccc3c2)CC1` [Example 30, 4-methyl-1-((5-(trifluoromethyl)-6-((cis)-4-(trifluoromethyl)cyclohexyloxy)naphthalen-2-yl)methyl)piperidine-4-carboxylic acid] and `NC1(C(=O)O)CCN(Cc2ccc3c(C(F)(F)F)c(O[C@H]4CC[C@@H](C(F)(F)F)CC4)ccc3c2)C1` (relative stereo) [Example 78, 1-((5-(trifluoromethyl)-6-((cis-4-(trifluoromethyl)cyclohexyl)oxy)-naphthalen-2-yl)methyl)-3-aminopyrrolidine-3-carboxylic acid] cannot be ordered by pIC50: at least 6.30 for the first, at least 6.30 for the second.

`O=C(O)CC1CCCCN1Cc1ccc2c(C(F)(F)F)c(O[C@H]3CC[C@@H](C(F)(F)F)CC3)ccc2c1` (relative stereo) [Example 27, 2-(1-((5-(trifluoromethyl)-6-((cis)-4-(trifluoromethyl)cyclohexyloxy)naphthalen-2-yl)methyl)piperidin-2-yl)acetic acid] and `O=C(O)C[C@H]1CCCN(Cc2ccc3c(C(F)(F)F)c(O[C@H]4CC[C@@H](C(F)(F)F)CC4)ccc3c2)C1` [Example 80, 2-((R)-1-((2-(cis-4-(trifluoromethyl)cyclohexyloxy)-1-(trifluoromethyl)naphthalen-6-yl)methyl)piperidin-3-yl)acetic acid] cannot be ordered by pIC50: at least 6.60 for the first, at least 6.60 for the second.

`CC[C@@H](c1ccc2c(C(F)F)c(O[C@H]3CC[C@@H](C)CC3)ccc2c1)N1CCC[C@H](CC(=O)O)C1` [Example 93, 2-((3R)-1-((S)-1-(6-((cis-4-Methylcyclohexyl)oxy)-5-(difluoromethyl)naphthalen-2-yl)propyl)piperidin-3-yl)acetic acid] and `C[C@H](c1ccc2c(C(F)F)c(O[C@H]3CC[C@@H](C)CC3)ccc2c1)N1CCC[C@H](CC(=O)O)C1` [Example 92, 2-((3R)-1-((R)-1-(6-((cis-4-Methylcyclohexyl)oxy)-5-(difluoromethyl)naphthalen-2-yl)ethyl)piperidin-3-yl)acetic acid] cannot be ordered by pIC50: at least 7.00 for the first, at least 7.00 for the second.

`CC1(C)C(NC(c2ccc3c(C(F)(F)F)c(O[C@H]4CC[C@@H](C)CC4)ccc3c2)C2CC2)CC1C(=O)O` (stereo partly drawn) [Example 38] and `CC(NC1CC(C(=O)O)C1(C)C)c1ccc2c(C(F)(F)F)c(O[C@H]3CC[C@@H](C(F)(F)F)CC3)ccc2n1` (stereo partly drawn) [Example 15, 2,2-dimethyl-3-(((1-(5-(trifluoromethyl)-6-(cis-4-(trifluoromethyl)cyclo-hexyl)oxy)quinolin-2-yl)ethyl)amino)cyclobutanecarboxylic acid] cannot be ordered by pIC50: at least 6.60 for the first, at least 6.60 for the second.

`C[C@H]1CC[C@@H](Oc2ccc3cc(CN4CCC(CC(=O)O)C4)ccc3c2C(F)(F)F)CC1` (relative stereo) [Example 46, 1-((5-trifluoromethyl-6-(cis-4-methylcyclohexyloxy)naphthalene-2-yl)methyl)-pyrrolidine-3-acetic acid] and `CC[C@H]1CC[C@@H](Oc2ccc3cc(CN4CCC[C@H](CC(=O)O)C4)ccc3c2C(F)(F)F)CC1` [Example 84, 2-((R)-1-((2-(cis-4-(ethyl)cyclohexyloxy)-1-(trifluoromethyl)naphthalen-6-yl)methyl)piperidin-3-yl)acetic acid] cannot be ordered by pIC50: at least 6.30 for the first, at least 7.00 for the second.

`CN(Cc1ccc2c(C(F)(F)F)c(O[C@H]3CC[C@@H](C(F)(F)F)CC3)ccc2c1)C[C@H]1CC[C@H](C(=O)O)CC1` [Example 28, (trans)-4-((methyl((5-(trifluoromethyl)-6-((cis)-4-(trifluoromethyl)cyclohexyloxy)naphthalen-2-yl)methyl)amino)methyl)cyclohexanecarboxylic acid] and `O=C(O)[C@H]1CC[C@H](CNCc2ccc3c(C(F)(F)F)c(O[C@H]4CC[C@@H](C(F)(F)F)CC4)ccc3c2)CC1` [Example 25, (trans)-4-(((5-(trifluoromethyl)-6-((cis)-4-(trifluoromethyl)cyclohexyloxy)naphthalen-2-yl)methylamino)methyl)cyclohexanecarboxylic acid] cannot be ordered by pIC50: at least 6.30 for the first, at least 6.60 for the second.

`C[C@@H](c1ccc2c(C(F)(F)F)c(O[C@H]3CC[C@@H](C)CC3)ccc2c1)N1CCC[C@H](CC(=O)O)C1` [Example 95, 2-((3R)-1-((S)-1-(6-((cis-4-Methylcyclohexyl)oxy)-5-(trifluoromethyl)naphthalen-2-yl)ethyl)piperidin-3-yl)acetic acid] and `CC(NCc1ccc2c(C(F)(F)F)c(O[C@H]3CC[C@@H](C(F)(F)F)CC3)ccc2c1)C1CCC(C(=O)O)CC1` (relative stereo) [Example 41, 4-(1-((5-(trifluoromethyl)-6-((cis)-4-(trifluoromethyl)cyclohexyloxy)naphthalen-2-yl)methylamino)ethyl)cyclohexanecarboxylic acid] cannot be ordered by pIC50: at least 7.00 for the first, at least 6.30 for the second.

`O=C(O)C1CCC(NCc2ccc3c(C(F)(F)F)c(O[C@H]4CC[C@@H](C(F)(F)F)CC4)ccc3c2)C1` (single isomer, unassigned) [Example 3b, 3-(((5-(trifluoromethyl)-6-((cis-4-(trifluoromethyl)cyclohexyl)oxy)-naphthalen-2-yl)methyl)amino)cyclopentanecarboxylic acid] showed a pIC50 of at least 6.30.

Source: patent US9555050B2 (BIOGEN MA INC., priority 2012, dated 2017)
